Test results as given in article PMC3527734, “Peripheral injections of melanin-concentrating hormone receptor 1 antagonist S38151 decrease food intake and body weight in rodent obesity models” (Frontiers in Endocrinology, 2012).
Where a SMILES comes first, the peptide text is derived from it.

What was measured:
Zucker fa/fa rats [1] = test: acute i.p. administration, food intake in fasted rats; format: in vivo, rat; conditions: S38151 30 mg/kg i.p.
Protocol: Zucker fa/fa rats were habituated in the same conditions as Wistar rats (described in section “Acute Central Peptide Administration and Feeding Studies in Wistar Rats”). At 09:00 on the day of study, after fasting for 24 h, either vehicle (normal saline) or S38151 [30 mg/kg (20 μmol/kg)] was administered intraperitoneally (i.p.).
Figure 6 The effect of S38151 on food intake in Zucker fa/fa rats after acute peripheral administration. Rats were fasted for 24 h, and then injected (i.p.) at the beginning of the light phase with vehicle (normal saline) or 30 mg/kg S38151. Cumulative food intake was measured 1, 2, 4, 6, and 24 h after injection. Results are expressed as mean ± SEM (n = 16 rats per group).

Zucker fa/fa rats [2] = conditions: cyclophosphamide 100 mg/kg i.p., S38151 20 nmol/kg (28 μg/kg) i.c.v., n = 8
Protocol: These experiments were performed with modifications to previously described methods (Madden et al., [1999]). Rats were individually housed in wire-bottomed plastic cages with free access to both food pellets (6 mm diameter A03 UAR) and kaolin powder. The food pellets were presented in a small porcelain bowl on the floor of the cage. The kaolin powder was presented in a metal feeding dish attached to the inside of the cage. After a 2-week habituation period to these conditions, the animals were randomized into five treatment groups based on the quantity of food eaten during the stabilization period. In addition, those rats that consistently spilled the kaolin powder were eliminated from the study. One day after randomization, the animals were injected just before the beginning of the dark phase with either cyclophosphamide (100 mg/kg, i.p.), or S38151 [20 nmol/kg (28 μg/kg) i.c.v.] or vehicle [(artificial CSF) i.c.v.]. After injection, the quantity of kaolin and food ingested during the following 24-h period was determined. Food or kaolin spilled by the animals was collected at the end of the experiment, and total food and kaolin intake measurements were corrected for this loss.
Figure 5 The effects of S38151 on conditioned taste aversion and pica in Zucker fa/fa rats. (A) In the conditioned taste aversion test, after a period of habituation of the animals to the experimental protocol, Zucker fa/fa rats were presented with 0.2% saccharine for 20 min after drinking water was removed from their cages for 18 h (test day 0). Animals were then injected (i.p.) with vehicle or lithium chloride, or with S38151 (20 nmol/kg, i.c.v). On test days 4, 7, 11, and 14, rats were presented with 0.2% saccharine, and the quantity consumed during a 20-min period was determined. Results are expressed as mean ± SEM (n = 10–11 rats per group). […] (B) In the pica test, Zucker fa/fa rats were injected (i.c.v.) with 20 nmol/kg S38151, or an equivalent volume of artificial cerebrospinal fluid vehicle. Food and kaolin intake during the following 24-h period were each measured. Results are expressed as mean ± SEM (n = 8 rats per group).

Wistar rats = test: NEI-MCH-induced food intake after acute i.c.v. injection; format: in vivo, rat
From the text: Wistar and Zucker fa/fa rats were anesthetized with Forène (Abbott Laboratories, Queenborough, UK), and a stainless steel guide cannula (Plastic Products Co, Roanoke, Va, USA) was stereotaxically implanted into the right lateral ventricle at the following coordinates relative to the bregma: AP −0.8 mm, L = −1.2 mm, and V = −3.5 mm. After a 7-day recovery period, during which the animals were handled each day to minimize non-specific stress, they were lightly anesthetized with Forène. Human/mouse/rat MCH (1 μg in a volume of 2.5 μ L, Bachem, Voisins-le-Bretonneux, France) or an equivalent volume of artificial cerebrospinal fluid (CSF) was then injected through the intraventricular cannula. Immediately after injection, the animals quickly recovered and were returned to their home cages. Only those animals responding within 2 h with a robust increase in food intake, indicating correct cannula placement, were used in the experiments described below. Two days after MCH injection, the rats were randomly assigned to different groups and studied in one of the following protocols.
Wistar rats were habituated for at least 2 weeks before experiment to a diet of food pellets (6 mm diameter) of the following composition: 67.5% food flour, 26.5% sucrose, 5% gum tragacanth, and 1.25% magnesium stearate (A03 UAR, Orge, France). The food pellets were present in a metal food hopper attached to the inside of each cage. At 09:00 on the day of study, the animals were lightly anesthetized with Forene® (Abbott, France). Thereafter, rats were injected intra-cerebroventricular (i.c.v.) with vehicle (artificial CSF) or with S38151 [0.5, 5, 10, 20, 30, or 50 nmol/kg ([…], 14, 28, 42, or 70 μg/kg, respectively)] in a volume of 2.5 μL, 20 min prior to the injection of human/rat NEI-MCH [5 nmol/kg (18.7 μg/kg) in a volume of 2.5 μL].
Food intake was measured at different times after peptide injection. Food spillage was carefully quantified during each time period, and intake measurements were corrected for this loss. At the end of the experiments, the animals were euthanized and the positions of the cannulae were assessed by the injection of 100 μ L Evans blue dye (2 mg/mL) followed by the visual examination of brain slices. Only data obtained from animals with correctly positioned cannulae were included in the final data analysis.
Figure 3 The effect of S38151 on NEI-MCH-induced food intake in Wistar rats after acute central administration. Satiated rats were injected (i.c.v.) at the beginning of the light phase with 5 μg NEI-MCH, 5 μg NEI-MCH + differing doses of S38151 (0.5–50 nmol/kg), or an equivalent volume of artificial cereblospinal fluid vehicle (5 μL). Cumulative food intake was measured at 1, 2, 4, 6, and 24 h post-injection.

For CSCC[C@@H]1NC(=O)[C@@H](NC(=O)c2ccc(NC(=N)N)cc2)CSSC[C@@H](C(=O)N[C@@H](Cc2c[nH]c3ccccc23)C(=O)O)NC(=O)[C@@H]2CCCN2C(=O)[C@H](CCCNC(=N)N)NC(=O)[C@H](Cc2ccc(O)cc2)NC(=O)[C@H](C(C)C)NC(=O)[C@H](CCCNC(=N)N)NC(=O)[C@H](CC(C)C)NC1=O [S38151, p-guanidinobenzoyl-(Des-Gly10)-MCH (7–17)] (HELM PEPTIDE1{[N=C(N)Nc1ccc(C(=O)[*:2])cc1].C.M.L.R.V.Y.R.P.C.W}$PEPTIDE1,PEPTIDE1,2:R3-10:R3$$$V2.0; C-terminus assumed), the “food intake, first hour” value (Zucker fa/fa rats [1]; 24-h fasted Zucker fa/fa rats, control 3.6 ± 0.4 g, mean ± SEM, n = 16) was 0.09 ± 0.06 g, the “inhibition of food consumption within 1 h” value (Zucker fa/fa rats [1]; Zucker fa/fa rats) was “complete inhibition” and the “decrease in food intake up to 24 h after drug administration” value (Zucker fa/fa rats [1]; cumulative food intake versus control) was “maintained statistical significance”. The “kaolin intake, 24 h, pica test” value (Zucker fa/fa rats [2]; vehicle 0.05 ± 0.01 g) was “did not significantly alter”, the “food intake, 24 h, pica test” value (Zucker fa/fa rats [2]; vehicle 27 ± 1 g) was “significantly reduced” and the “food intake during the entire 24-h period versus control group” value (Wistar rats; NEI-MCH alone or any combination of NEI-MCH and S38151, i.c.v.) was “not significantly altered”. For the same compound, the “inhibition of NEI-MCH-induced food intake” value (Wistar rats; S38151 50 nmol/kg i.c.v.) was “Nearly complete inhibition” and the “inhibition of the increase in food intake produced by NEI-MCH” value (Wistar rats; S38151 0.5-50 nmol/kg i.c.v. 20 min before NEI-MCH, first and second hours) was “statistically significant dose-related inhibition”.
